Earlier results as cited in patent publication US20060258633A1, “Amorphous tegaserod maleate” (priority 2005, published 2006).

Details: white to off-white crystalline powder

solubility in ethanol (ethanol): slightly soluble
solubility in water (water): very slightly soluble
Compound: CCCCCNC(=N)N/N=C/c1c[nH]c2ccc(OC)cc12.O=C(O)/C=C\C(=O)O [Tegaserod maleate, 3-(5-methoxy-1H-indole-3-ylmethylene)-N-pentylcarbazimidamide hydrogen meleate]
